PMC12935787, “Clinical pharmacokinetics and pharmacometabolomics of Andrographis paniculata capsules: Bridging drug disposition and metabolic response to precision medicine” (Naunyn-Schmiedeberg's Archives of Pharmacology, 2025)
Like-named read-outs stand apart in the source and are kept apart here.

Assay: Clinical pharmacokinetics, plasma LC-MS/MS after single oral dose of AP capsules
Assay type: in vivo, human (healthy volunteers)
Details: human, plasma; for concentration at 0 h / concentration at 0.5 h / concentration at 1 h / concentration at 1.5 h / concentration at 2 h / concentration at 2.5 h / concentration at 3 h / concentration at 3.5 h / concentration at 4 h / concentration at 5 h / concentration at 6 h / concentration at 8 h / concentration at 10 h / concentration at 12 h / concentration at 24 h: oral, 2000 mg, 2000 mg AP capsules; for concentration at 0.5 h: 0.50 h; for concentration at 1.5 h: 1.50 h; for concentration at 2.5 h: 2.50 h; for concentration at 3.5 h: 3.50 h
Description: The protocol was published (Tee et al. [2022]).
Seven calibrators ranging from 1, 2, 5,10, 20, 50, and 100 ng mL^−1 were prepared. Frozen plasma was thawed, vortexed-mixes, and processed via protein precipitation: 50 µL plasma plus 100 µL 0.01% ammonia in methanol were vortexed (20 s), centrifuged (14800 rpm, 5 min) and […] supernatant was transferred to 2 mL vials with inserts. LC–MS/MS injection volume: 10 µL. The separation used a Phenomenex Gemini-NX C18 column (150 × 2.1 mm, 5 μm) with 0.01% ammonia (A) and acetonitrile/methanol (1:1, B) as mobile phases (0.30 mL min^-1). The gradient program: 40% B (0 min), linear increase to 95% B (3 min), hold to 5 min, sharp decrease to 10% B (5.01 min), hold to 7 min, return to 40% B (7.01 min), and re-equilibration to 10 min. Mass detection employed an LCMS-8060NX triple quadrupole with heated ESI in negative mode, monitoring specific MRM transitions: andrographolide (349.3 → 331.2/287.1), 14-deoxyandrographolide (331.2 → 108.0/301.1), and neoandrographolide (479.1 → 317.4/161.1).
Pharmacokinetic parameters were determined from plasma samples (5 subjects, 15 time points) analyzed via LC–MS/MS (Shimadzu 8060NX). […] Specific MRM transitions for andrographolide, 14-deoxyandrographolide, and neoandrographolide in plasma samples of subjects are illustrated in Figure S3. […] The dose-dependent concentration–time curves, pharmacokinetics profiles (Fig. 2a, b and c) and comprehensive individual PK data (Table S4) provide a foundation for developing personalized AP dosing regimens, supporting its precision medicine potential.

[1] = S1, read-out: Plasma concentration
[2] = S2, read-out: Plasma concentration
[3] = S3, read-out: Plasma concentration
[4] = S4, read-out: Plasma concentration
[5] = S5, read-out: Plasma concentration
[6] = mean n=5, read-out: Mean concentration
[7] = 2000 mg AP capsules oral, fasting, n=5

concentration at 0 h [1]: 0 ng/mL
concentration at 0.5 h [1]: 13.2 ng/mL
concentration at 1 h [1]: 21.3 ng/mL
concentration at 1.5 h [1]: 41.4 ng/mL
concentration at 2 h [1]: 32 ng/mL
concentration at 2.5 h [1]: 19.7 ng/mL
concentration at 3 h [1]: 24.1 ng/mL
concentration at 3.5 h [1]: 22.2 ng/mL
concentration at 4 h [1]: 6.67 ng/mL
concentration at 5 h [1]: 11.3 ng/mL
concentration at 6 h [1]: 4.57 ng/mL
concentration at 8 h [1]: 0.97 ng/mL
concentration at 10 h [1]: 0 ng/mL
concentration at 12 h [1]: 0 ng/mL
concentration at 24 h [1]: 0 ng/mL
concentration at 0 h [2]: 0 ng/mL
concentration at 0.5 h [2]: 0.77 ng/mL
concentration at 1 h [2]: 45.3 ng/mL
concentration at 1.5 h [2]: 43.7 ng/mL
concentration at 2 h [2]: 28 ng/mL
concentration at 2.5 h [2]: 21.7 ng/mL
concentration at 3 h [2]: 36.5 ng/mL
concentration at 3.5 h [2]: 15.1 ng/mL
concentration at 4 h [2]: 12.8 ng/mL
concentration at 5 h [2]: 16.2 ng/mL
concentration at 6 h [2]: 5.29 ng/mL
concentration at 8 h [2]: 1.69 ng/mL
concentration at 10 h [2]: 0 ng/mL
concentration at 12 h [2]: 0 ng/mL
concentration at 24 h [2]: 0 ng/mL
concentration at 0 h [3]: 0 ng/mL
concentration at 0.5 h [3]: 82.9 ng/mL
concentration at 1 h [3]: 75.6 ng/mL
concentration at 1.5 h [3]: 50 ng/mL
concentration at 2 h [3]: 24.3 ng/mL
concentration at 2.5 h [3]: 13.1 ng/mL
concentration at 3 h [3]: 7.05 ng/mL
concentration at 3.5 h [3]: 0 ng/mL
concentration at 4 h [3]: 0 ng/mL
concentration at 5 h [3]: 0 ng/mL
concentration at 6 h [3]: 0 ng/mL
concentration at 8 h [3]: 0 ng/mL
concentration at 10 h [3]: 0 ng/mL
concentration at 12 h [3]: 0 ng/mL
concentration at 24 h [3]: 0 ng/mL
concentration at 0 h [4]: 0 ng/mL
concentration at 0.5 h [4]: 1.9 ng/mL
concentration at 1 h [4]: 41.1 ng/mL
concentration at 1.5 h [4]: 109 ng/mL
concentration at 2 h [4]: 78.2 ng/mL
concentration at 2.5 h [4]: 53.9 ng/mL
concentration at 3 h [4]: 43.9 ng/mL
concentration at 3.5 h [4]: 33.5 ng/mL
concentration at 4 h [4]: 21.9 ng/mL
concentration at 5 h [4]: 20.6 ng/mL
concentration at 6 h [4]: 11.9 ng/mL
concentration at 8 h [4]: 2.08 ng/mL
concentration at 10 h [4]: 0 ng/mL
concentration at 12 h [4]: 0 ng/mL
concentration at 24 h [4]: 0 ng/mL
concentration at 0 h [5]: 0 ng/mL
concentration at 0.5 h [5]: 15.4 ng/mL
concentration at 1 h [5]: 27.1 ng/mL
concentration at 1.5 h [5]: 48 ng/mL
concentration at 2 h [5]: 86.8 ng/mL
concentration at 2.5 h [5]: 65.8 ng/mL
concentration at 3 h [5]: 59.5 ng/mL
concentration at 3.5 h [5]: 31.1 ng/mL
concentration at 4 h [5]: 18.5 ng/mL
concentration at 5 h [5]: 9.61 ng/mL
concentration at 6 h [5]: 4.65 ng/mL
concentration at 8 h [5]: 1.35 ng/mL
concentration at 10 h [5]: 0 ng/mL
concentration at 12 h [5]: 0 ng/mL
concentration at 24 h [5]: 0 ng/mL
concentration at 0 h [6]: 0 ng/mL
concentration at 0.5 h [6]: 22.8 ng/mL
concentration at 1 h [6]: 42.1 ng/mL
concentration at 1.5 h [6]: 58.5 ng/mL
concentration at 2 h [6]: 49.9 ng/mL
concentration at 2.5 h [6]: 34.9 ng/mL
concentration at 3 h [6]: 34.2 ng/mL
concentration at 3.5 h [6]: 20.4 ng/mL
concentration at 4 h [6]: 12 ng/mL
concentration at 5 h [6]: 11.5 ng/mL
concentration at 6 h [6]: 5.28 ng/mL
concentration at 8 h [6]: 1.22 ng/mL
concentration at 10 h [6]: 0 ng/mL
concentration at 12 h [6]: 0 ng/mL
concentration at 24 h [6]: 0 ng/mL
AUC(0-inf) [7]: 163 ng·h/mL
AUC(0-t) [7]: 161 ng·h/mL
Cmax [7]: 58.5 ng/mL
half-life [7]: 55.8 min
SMILES: C=C1CC[C@@H]2[C@](C)(CO[C@@H]3O[C@H](CO)[C@@H](O)[C@H](O)[C@H]3O)CCC[C@@]2(C)[C@@H]1CCC1=CCOC1=O [neoandrographolide]
